Results on 13 molecules are retold here after patent publication US5869476A, “Pyrimidinone derivatives” (Boryung Pharmaceutical Co., Ltd., priority 1994, dated 1999).

SMILES strings stand for the structures.

The test has as its target T1, angiotensin II receptor (Oryctolagus cuniculus, UniProt P34976).
T1 construct: The aorta was cut into 3~4 mm to form ring samples; from tissue; host or cells: isolated aorta rings of New Zealand White rabbits
T1 sequence (P34976 1-359): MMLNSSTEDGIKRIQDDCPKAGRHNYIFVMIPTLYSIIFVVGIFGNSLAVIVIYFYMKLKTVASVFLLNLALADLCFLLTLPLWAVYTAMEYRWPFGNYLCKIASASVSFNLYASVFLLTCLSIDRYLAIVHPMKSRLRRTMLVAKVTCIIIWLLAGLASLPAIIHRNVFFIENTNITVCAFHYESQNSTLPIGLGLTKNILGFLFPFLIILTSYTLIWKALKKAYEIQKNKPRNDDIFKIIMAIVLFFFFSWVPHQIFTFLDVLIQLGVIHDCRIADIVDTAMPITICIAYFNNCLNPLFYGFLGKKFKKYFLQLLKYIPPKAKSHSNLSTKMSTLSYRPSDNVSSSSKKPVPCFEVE
In words: inhibition of angiotensin II induced contraction of isolated rabbit aorta rings. The test is classed as cell-based, New Zealand White rabbit. To be noted: test compound incubated 20 minutes, 37° C., pH 7.4, read-out: IC50 (concentration being required to inhibit angiotensin II induced contraction by 50%). As to the method: The antagonistic activity of the representative compounds of the invention was evaluated using the methodology describe below.
From New Zealand White rabbits (male or female, 2~2.5 kg), aorta was isolated, and fat and connected tissue were removed therefrom. The aorta was cut into 3~4 mm to form ring samples. The aorta sample was suspended in 20 ml of organ bath (37° C.) containing modified Krebs-Henseleit solution saturated with 95% O2 /5% CO2 (pH 7.4).
The aorta preparation was exposed consecutively to 2 g of tensile strength for 90 minutes intermittently washing the sample with 30 minutes interval and then to 30 mM of KCl to observe contraction response. After washing more than three times, the aorta preparation was again allowed to contract three times for stabilization by adding Angiotensin II ([…]) thereto with 30 minutes interval. The third contraction response to Angiotensin II was considered as control.
10 minutes after the third contraction, the test compound was administered to the aorta preparation, which was incubated for 20 minutes.
Comparing angiotensin II contraction curve obtained from the above inhibition test with that of the control, IC50 (concentration being required to inhibit angiotensin II induced contraction by 50%) was determined for each test compound(Table 1).
Regarding `CCOC(=O)Cc1c(C)nc(CC)n(Cc2ccc(-c3ccccc3-c3nnn[nH]3)cc2)c1=O` [Compound 1, 2-ethyl-5-ethoxycarbonylmethyl-6-methyl-3-[[2'-(1H-tetrazol-5-yl)biphenyl-4-yl]methyl]-pyrimidin-4-(3H)-one], the IC50 was 9.05 nM. To `CCc1nc(C)c(CC(=O)O)c(=O)n1Cc1ccc(-c2ccccc2-c2nnn[nH]2)cc1` [Compound 2, 2-ethyl-5-carboxymethyl-6-methyl-3-[[2'-(1H-tetrazol-5-yl)-biphenyl-4-yl]methyl]-pyrimidin-4-(3H)-one] belongs 14.2 nM; to `CCc1nc(=O)c(CC(=O)O)c(C)n1Cc1ccc(-c2ccccc2-c2nnn[nH]2)cc1` [Compound 3, 2-ethyl-5-carboxymethyl-6-methyl-1-[[2'-(1H-tetrazol-5-yl)-biphenyl-4-yl]methyl]-pyrimidin-4-(1H)-one], 22.3 nM; to `CCc1nc(C)c(CC(=O)N(CC)CC)c(=O)n1Cc1ccc(-c2ccccc2-c2nnn[nH]2)cc1` [Compound 4, 2-ethyl-5-diethylaminocarbonylmethyl-6-methyl-3-[[2'-(1H-tetrazol-5-yl)biphenyl-4-yl]methyl]-pyrimidin-4-(3H)-one], 15.1 nM.

As to `CCOC(=O)CCc1c(C)nc(CC)n(Cc2ccc(-c3ccccc3-c3nnn[nH]3)cc2)c1=O` [Compound 5, 2-ethyl-5-(2'-ethoxycarbonylethyl)-6-methyl-3-[[2'-(1H-tetrazol-5-yl)biphenyl-4-yl]methyl]-pyrimidin-4-(3H)-one], the IC50 amounted to 30.7 nM. To `CCc1nc(C)c(CCC(=O)O)c(=O)n1Cc1ccc(-c2ccccc2-c2nnn[nH]2)cc1` [Compound 6, 2-ethyl-5-(2'-carboxyethyl)-6-methyl-3-[[2'-(1H-tetrazol-5-yl)-biphenyl-4-yl]methyl]-pyrimidin-4-(3H)-one] belongs 22.7 nM; to `CCc1nc(=O)c(CCC(=O)O)c(C)n1Cc1ccc(-c2ccccc2-c2nnn[nH]2)cc1` [Compound 7, 2-ethyl-5-(2'-carboxyethyl)-6-methyl-1-[[2'-(1H-tetrazol-5-yl)-biphenyl-4-yl]methyl]-pyrimidin-4-(1H)-one], 2.84 nM; to `CCc1nc(C)c(CCC(=O)N(CC)CC)c(=O)n1Cc1ccc(-c2ccccc2-c2nnn[nH]2)cc1` [Compound 8, 2-ethyl-5-(2'-diethylaminocarbonylethyl)-6-methyl-3-[[2'-(1H-tetrazol-5-yl)biphenyl-4-yl]methyl]-pyrimidin-4(3H)-one], 73.6 nM. Turning to `CCCc1nc(C)c(CC(=O)OCC)c(=O)n1Cc1ccc(-c2ccccc2-c2nnn[nH]2)cc1` [Compound 9, 2-n-propyl-5-ethoxycarbonylmethyl-6-methyl-3-[[2'-(1H-tetrazol-5-yl)biphenyl-4-yl]methyl]-pyrimidin-4-(3H)-one], the IC50 was determined as 4.35 nM.

In the case of `CCCc1nc(C)c(CC(=O)O)c(=O)n1Cc1ccc(-c2ccccc2-c2nnn[nH]2)cc1` [Compound 10, 2-n-propyl-5-carboxymethyl-6-methyl-3-[[2'-(1H-tetrazol-5-yl)-biphenyl-4-yl]methyl]-pyrimidin-4-(3H)-one], the IC50 turned out to be 37.1 nM. To `CCCc1nc(=O)c(CC(=O)O)c(C)n1Cc1ccc(-c2ccccc2-c2nnn[nH]2)cc1` [Compound 11, 2-n-propyl-5-carboxymethyl-6-methyl-1-[[2'-(1H-tetrazol-5-yl)-biphenyl-4-yl]methyl]-pyrimidin-4-(1H)-one] belongs 7.71 nM. Turning to `CCCc1nc(C)c(CC(=O)N(CC)CC)c(=O)n1Cc1ccc(-c2ccccc2-c2nnn[nH]2)cc1` [Compound 12, 2-n-propyl-5-diethylaminocarbonylmethyl-6-methyl-3-[[2'-(1H-tetrazol-5-yl)biphenyl-4-yl]methyl]-pyrimidin-4-(3H)-one], the IC50 was determined as 5.59 nM. The result for `CCCc1nc(C)c(CCC(=O)OCC)c(=O)n1Cc1ccc(-c2ccccc2-c2nn[nH]n2)cc1` [Compound 13, 2-n-propyl-5-(2'-ethoxycarbonylethyl)-6-methyl-3-[[2'-(1H-tetrazol-5-yl)biphenyl-4-yl]methyl]-pyrimidin-4-(3H)-one] reads 4.99 nM.
